Source: US11433086B2, “Combination of T-cell checkpoint inhibitors with inhibitors of e-selectin or CXCR4, or with heterobifunctional inhibitors of both E-selectin and CXCR4” (GlycoMimetics, Inc., priority 2016, dated 2022)

Key:
[1] = test system: Human E-selectin/Ig chimera; experiment: Competitive binding assay, sLe^a-polyacrylamide conjugate to immobilized E-selectin; settings: sLe^a-polyacrylamide/streptavidin-HRP conjugate
Protocol: (§1) FIG. 21 relates to an experiment carried out to determine the competitive binding activity (IC50) of GMI-1359 against E-selectin and CXCR4. GMI-1359 was assessed for inhibition of sialyl Le^X binding to immobilized E-selectin and α-CXCR4 antibody binding to Raji cells.
The inhibition assay to screen GMI-1359 as an antagonist of E-selectin was a competitive binding assay, which allowed the determination of IC50 values. Human E-selectin/Ig chimera was immobilized by incubation at 37° C. for 2 hour in 96-well microtiter plates. To reduce nonspecific binding, BSA was added to each well and incubated at room temperature for 2 hours. After incubation with E-selectin/Ig chimera, the plate was washed and serial dilutions of the test compounds were added to the wells in the presence of conjugates of biotinylated, sLe^a-polyacrylamide with streptavidin/horseradish peroxidase and incubated for 2 hours at room temperature. To determine the amount of sLe^a bound to immobilized E-selectin after washing, the peroxidase substrate, 3,3′,5,5′ tetramethylbenzidin (TMB) was added. After 3 minutes, the enzyme reaction was stopped by the addition of H3PO4, and the absorbance of light at a wavelength of 450 nm was determined. […]

CXCR4 = biological target: T1, CXCR4 (Homo sapiens, UniProt P61073); experiment: Flow based competitive binding assay, anti-CXCR4 antibody binding to Raji cells; settings: phycoerythrin-conjugated anti-CXCR4 antibody
T1 construct: host or cells: Raji cells
Protocol: as §1
The inhibition assay to screen GMI-1359 as an antagonist of CXCR4 was a flow based competitive binding assay, which allowed the determination of […] values. Raji cells (ATCC number TIB-152) were washed twice with Hanks Balanced Saline Solution (HBSS) containing 0.05% bovine serum albumin (BSA). After the second wash, the cells were resuspended to about 2.5×10^6 cells per mL and 80 μl of cells (approximately 2×10^5 cells) were added to BD 2063 tubes. Next, 10 μl of either GMI-1359 or HBSS/BSA (as a negative control) were added to the cells and the tube was placed at room temperature for 10 minutes. Then, 10 μl of a phycoerythrin-conjugated anti-CXCR4 antibody (R&D Systems, FAB170P) or as a negative control, 10 μl of an isotype control antibody (R&D Systems, IC003P) was added to the cells with HBSS/BSA. The antibodies were allowed to bind to the cells for 1 hour at 4° C. […] Binding of the anti-CXCR4-PE antibody to the cells was assessed by flow cytometry, and the median fluorescent intensity was determined. […]

T1 sequence (P61073 whole entry): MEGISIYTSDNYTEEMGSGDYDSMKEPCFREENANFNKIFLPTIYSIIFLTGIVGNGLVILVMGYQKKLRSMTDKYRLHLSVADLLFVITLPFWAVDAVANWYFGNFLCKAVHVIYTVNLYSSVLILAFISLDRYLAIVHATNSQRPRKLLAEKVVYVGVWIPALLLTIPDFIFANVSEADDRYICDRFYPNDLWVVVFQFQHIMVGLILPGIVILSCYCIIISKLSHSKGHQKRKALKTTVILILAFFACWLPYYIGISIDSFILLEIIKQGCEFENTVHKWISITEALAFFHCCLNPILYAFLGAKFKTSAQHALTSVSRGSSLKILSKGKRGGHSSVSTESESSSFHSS

In the case of CCC1CC(C(=O)NCCNCc2ccc(CN3CCCNCCNCCCNCC3)c(Br)c2)CC(OC2OC(CO)C(O)C(O[C@@H](CC3CCCCC3)C(=O)O)C2NC(C)=O)C1OC1OC(C)C(O)C(O)C1O (some centres unmarked) [GMI-1359], the “inhibition of ligand binding to E-selectin” value [1] is reported as “inhibits ligand binding” and the “inhibition of anti-CXCR4 antibody binding” value (CXCR4) is reported as “inhibits ligand binding”.
